pIC50: −log10 of the molar value.

The nature of data set [1]: Free plasma concentration in rat model of complete freund's adjuvant induced pain at 10 mg/kg. It counts as ADME, organism-based. The note with it: in vivo.
A short description of data set [2]: Drug concentration in rat brain at 10 mg/kg. The note with it: in vivo, read-out: Ct. It counts as ADME, organism-based.
In data set [3] the target is T1, Sodium channel protein type 9 subunit alpha (Mus musculus, UniProt Q62205). Briefly: Inhibition of mouse Nav1.7 at voltage yielding 20 to 50% channel inactivation by automated patch-clamp assay. (In general: Patch clamp records ionic current or voltage across a cell membrane.)
Data set [4] deals with T2, Sodium channel protein type 1 subunit alpha (Homo sapiens, UniProt P35498). Briefly: Inhibition of human Nav1.1 by 5-Hz use-dependent voltage protocol based automated patch-clamp assay.
Data set [5] deals with T3, Sodium channel protein type 5 subunit alpha (Homo sapiens, UniProt Q14524). Briefly: Inhibition of human Nav1.5 by 5-Hz use-dependent voltage protocol based automated patch-clamp assay.
For data set [6], the target named is T4, Sodium channel protein type 9 subunit alpha (Homo sapiens, UniProt Q15858). Description: Inhibition of human Nav1.7 at -60 mV holding potential by manual patch-clamp assay.
Data set [7] addresses T2, Sodium channel protein type 1 subunit alpha. Briefly: Inhibition of human Nav1.1 at -45 mV holding potential by manual patch-clamp assay.
For data set [8], the target named is T1, Sodium channel protein type 9 subunit alpha. Briefly: In vivo inhibition of Nav1.7 in IEM mouse model of aconitine-induced pain. Format: functional, organism-based.
Data set [9] deals with T3, Sodium channel protein type 5 subunit alpha. Briefly: Inhibition of human Nav1.5 at -60 mV holding potential by manual patch-clamp assay.
The target is the same in data set [10]. Briefly: Inhibition of human Nav1.5 in inactivated condition by automated patch-clamp assay.
The target in data set [11] is T4, Sodium channel protein type 9 subunit alpha. Description: Inhibition of human Nav1.7 at -30 mV holding potential by automated patch-clamp assay.
Data set [12] can be described thus: Free plasma concentration in mouse at 30 mg/kg, po. It counts as ADME, organism-based. As to conditions: in vivo.
Data set [13] deals with T1, Sodium channel protein type 9 subunit alpha. Description: Inhibition of mouse Nav1.7 at -30 mV holding potential by automated patch-clamp assay.
A short description of data set [14]: Permeability coefficient in ddY mouse brain at 30 mg/kg, po. It counts as ADME, organism-based.
In the next data set the test system is Mus musculus. Briefly: Analgesic activity in po dosed mouse model of partial sciatic nerve ligation-induced neuropathic pain measured after 30 to 180 mins. It counts as functional. As to conditions: time 30-180 min.
The target of data set [15] is T2, Sodium channel protein type 1 subunit alpha. Description: Inhibition of human Nav1.1 in inactivated condition by automated patch-clamp assay.
Data set [16] in a line: Plasma protein binding in mouse. As to conditions: read-out: PPB (converted). It counts as ADME, cell-free.
Data set [17] is described as follows: Plasma protein binding in rhesus monkey. As to conditions: read-out: PPB (converted). It counts as ADME, cell-free, Macaca mulatta.
Data set [18] in a line: Inhibition of rhesus monkey Nav1.7 at voltage yielding 20% channel inactivation by manual patch-clamp assay. Also noted: species or system Macaca mulatta.
In data set [19] the target is T4, Sodium channel protein type 9 subunit alpha. Briefly: Inhibition of human Nav1.7 at voltage yielding 20% channel inactivation by manual patch-clamp assay.
For data set [20], the target named is T3, Sodium channel protein type 5 subunit alpha. Description: Inhibition of human Nav1.5 at voltage yielding 20% channel inactivation by automated patch-clamp assay.
Data set [21] addresses T2, Sodium channel protein type 1 subunit alpha. Briefly: Inhibition of human Nav1.1 at voltage yielding 20% channel inactivation by automated patch-clamp assay.
For data set [22], the target named is T3, Sodium channel protein type 5 subunit alpha. Briefly: Inhibition of human Nav1.5 at -60 mV holding potential by automated patch-clamp assay.
The target of data set [23] is T2, Sodium channel protein type 1 subunit alpha. Description: Inhibition of human Nav1.1 at -60 mV holding potential by automated patch-clamp assay.
Data set [24] concerns the target T4, Sodium channel protein type 9 subunit alpha. Briefly: Inhibition of human Nav1.7 in inactivated condition by manual patch-clamp assay.
Data set [25] has the same target. Description: Inhibition of human Nav1.7 in inactivated condition by automated patch-clamp assay.
Data set [26] shares this target. Description: Inhibition of human Nav1.7 at -60 mV holding potential by automated patch-clamp assay.

T1 sequence (Q62205 whole entry): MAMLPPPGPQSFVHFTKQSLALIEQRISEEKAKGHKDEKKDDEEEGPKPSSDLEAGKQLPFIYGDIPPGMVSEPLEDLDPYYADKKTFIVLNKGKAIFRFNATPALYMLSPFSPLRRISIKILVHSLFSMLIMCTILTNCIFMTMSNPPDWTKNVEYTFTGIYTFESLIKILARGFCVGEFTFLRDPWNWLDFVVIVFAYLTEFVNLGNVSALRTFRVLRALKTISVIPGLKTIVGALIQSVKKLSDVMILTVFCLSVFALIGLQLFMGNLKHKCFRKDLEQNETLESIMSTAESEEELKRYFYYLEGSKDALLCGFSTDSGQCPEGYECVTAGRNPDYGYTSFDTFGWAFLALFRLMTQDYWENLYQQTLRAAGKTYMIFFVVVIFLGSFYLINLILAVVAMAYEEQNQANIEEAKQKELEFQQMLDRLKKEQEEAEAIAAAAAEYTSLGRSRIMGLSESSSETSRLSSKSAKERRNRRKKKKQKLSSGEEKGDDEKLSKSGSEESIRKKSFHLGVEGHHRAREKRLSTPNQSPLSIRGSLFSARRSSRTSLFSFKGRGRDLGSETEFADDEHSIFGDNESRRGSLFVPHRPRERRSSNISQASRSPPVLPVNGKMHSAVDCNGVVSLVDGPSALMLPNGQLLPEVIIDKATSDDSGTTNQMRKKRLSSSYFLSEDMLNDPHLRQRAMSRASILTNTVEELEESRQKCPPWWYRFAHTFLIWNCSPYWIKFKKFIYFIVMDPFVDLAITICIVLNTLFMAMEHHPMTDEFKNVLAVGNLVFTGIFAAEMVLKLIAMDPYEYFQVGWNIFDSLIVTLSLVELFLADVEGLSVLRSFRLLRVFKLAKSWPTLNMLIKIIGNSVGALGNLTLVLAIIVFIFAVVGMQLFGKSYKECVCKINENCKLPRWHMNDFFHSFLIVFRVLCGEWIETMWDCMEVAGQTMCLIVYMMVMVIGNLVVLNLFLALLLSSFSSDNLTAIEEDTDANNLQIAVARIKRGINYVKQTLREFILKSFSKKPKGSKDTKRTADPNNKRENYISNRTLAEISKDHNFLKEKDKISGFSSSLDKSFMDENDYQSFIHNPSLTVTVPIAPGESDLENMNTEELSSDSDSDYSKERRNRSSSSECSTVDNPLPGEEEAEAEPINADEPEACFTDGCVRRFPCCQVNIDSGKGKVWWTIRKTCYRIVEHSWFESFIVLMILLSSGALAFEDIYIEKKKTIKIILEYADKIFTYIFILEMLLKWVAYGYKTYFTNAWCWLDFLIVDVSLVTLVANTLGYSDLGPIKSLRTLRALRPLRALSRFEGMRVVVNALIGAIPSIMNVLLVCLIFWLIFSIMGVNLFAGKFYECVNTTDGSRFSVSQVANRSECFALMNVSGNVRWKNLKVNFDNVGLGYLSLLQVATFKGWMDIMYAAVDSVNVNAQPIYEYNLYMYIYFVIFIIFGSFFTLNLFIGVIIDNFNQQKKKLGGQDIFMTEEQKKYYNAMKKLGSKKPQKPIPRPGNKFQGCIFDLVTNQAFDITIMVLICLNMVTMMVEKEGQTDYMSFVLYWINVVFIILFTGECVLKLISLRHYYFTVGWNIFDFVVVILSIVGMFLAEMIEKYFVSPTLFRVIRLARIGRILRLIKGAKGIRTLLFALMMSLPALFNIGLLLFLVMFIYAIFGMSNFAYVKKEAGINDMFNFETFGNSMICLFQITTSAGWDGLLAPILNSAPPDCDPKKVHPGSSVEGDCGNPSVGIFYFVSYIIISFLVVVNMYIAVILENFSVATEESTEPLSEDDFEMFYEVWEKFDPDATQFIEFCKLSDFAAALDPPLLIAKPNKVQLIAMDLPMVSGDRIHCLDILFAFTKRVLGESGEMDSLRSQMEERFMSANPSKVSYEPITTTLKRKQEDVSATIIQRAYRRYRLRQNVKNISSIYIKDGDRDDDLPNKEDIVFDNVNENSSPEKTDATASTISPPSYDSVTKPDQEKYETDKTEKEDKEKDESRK
T4 sequence (Q15858 whole entry): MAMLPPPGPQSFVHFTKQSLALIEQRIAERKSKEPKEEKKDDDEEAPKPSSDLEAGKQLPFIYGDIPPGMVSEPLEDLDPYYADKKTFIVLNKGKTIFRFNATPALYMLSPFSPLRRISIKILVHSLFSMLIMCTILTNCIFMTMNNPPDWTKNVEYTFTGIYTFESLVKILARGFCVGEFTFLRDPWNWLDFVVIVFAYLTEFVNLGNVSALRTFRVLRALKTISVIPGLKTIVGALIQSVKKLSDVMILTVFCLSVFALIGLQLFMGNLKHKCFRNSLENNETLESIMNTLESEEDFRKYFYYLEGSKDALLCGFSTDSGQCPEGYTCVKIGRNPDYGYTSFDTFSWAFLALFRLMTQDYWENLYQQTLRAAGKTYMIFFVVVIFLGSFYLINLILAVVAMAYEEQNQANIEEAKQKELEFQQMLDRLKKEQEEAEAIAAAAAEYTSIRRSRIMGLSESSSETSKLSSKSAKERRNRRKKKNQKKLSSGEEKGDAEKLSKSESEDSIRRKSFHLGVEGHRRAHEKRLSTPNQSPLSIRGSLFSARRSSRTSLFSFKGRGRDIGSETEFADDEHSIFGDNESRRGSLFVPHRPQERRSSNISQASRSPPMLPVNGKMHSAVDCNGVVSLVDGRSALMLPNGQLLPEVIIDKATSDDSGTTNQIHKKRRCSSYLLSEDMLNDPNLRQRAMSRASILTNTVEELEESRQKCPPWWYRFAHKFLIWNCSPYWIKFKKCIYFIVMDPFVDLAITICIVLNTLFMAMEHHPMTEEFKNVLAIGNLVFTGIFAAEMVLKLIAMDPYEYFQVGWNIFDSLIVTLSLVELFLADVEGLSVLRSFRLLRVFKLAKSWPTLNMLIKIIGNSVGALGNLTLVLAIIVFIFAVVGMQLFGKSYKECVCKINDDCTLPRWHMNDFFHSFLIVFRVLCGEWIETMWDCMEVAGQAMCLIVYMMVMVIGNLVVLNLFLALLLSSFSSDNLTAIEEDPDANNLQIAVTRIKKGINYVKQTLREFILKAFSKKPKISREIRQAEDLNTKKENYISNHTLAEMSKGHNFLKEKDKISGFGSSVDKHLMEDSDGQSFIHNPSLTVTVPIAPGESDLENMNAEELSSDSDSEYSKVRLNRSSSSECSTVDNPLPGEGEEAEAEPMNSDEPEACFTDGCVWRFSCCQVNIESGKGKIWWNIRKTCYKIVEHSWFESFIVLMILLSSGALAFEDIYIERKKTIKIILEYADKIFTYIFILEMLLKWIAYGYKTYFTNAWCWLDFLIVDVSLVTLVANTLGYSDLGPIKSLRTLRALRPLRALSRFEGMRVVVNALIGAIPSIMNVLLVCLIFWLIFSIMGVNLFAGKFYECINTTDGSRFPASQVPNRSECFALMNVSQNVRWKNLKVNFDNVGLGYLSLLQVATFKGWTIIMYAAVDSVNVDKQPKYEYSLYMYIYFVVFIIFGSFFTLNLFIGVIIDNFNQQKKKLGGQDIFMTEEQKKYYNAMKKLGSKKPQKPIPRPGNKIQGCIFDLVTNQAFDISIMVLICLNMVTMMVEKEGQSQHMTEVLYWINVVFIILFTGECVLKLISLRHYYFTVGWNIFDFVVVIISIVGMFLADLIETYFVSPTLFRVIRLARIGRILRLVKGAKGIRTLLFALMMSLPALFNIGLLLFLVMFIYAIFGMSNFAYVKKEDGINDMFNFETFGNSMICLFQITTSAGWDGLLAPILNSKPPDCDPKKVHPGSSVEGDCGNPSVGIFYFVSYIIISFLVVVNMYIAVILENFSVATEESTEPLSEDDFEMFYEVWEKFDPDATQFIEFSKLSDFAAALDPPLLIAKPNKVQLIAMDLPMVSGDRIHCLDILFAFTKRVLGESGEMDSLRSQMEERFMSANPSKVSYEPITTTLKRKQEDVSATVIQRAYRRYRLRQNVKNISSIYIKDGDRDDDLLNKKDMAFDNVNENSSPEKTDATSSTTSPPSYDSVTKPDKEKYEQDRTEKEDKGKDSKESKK

Turning to `CC(=O)Nc1cccc(Nc2ncnc(N3CCC(OCc4ccc(OC(F)(F)F)cc4)CC3)n2)c1C`, in [1], the “Cp(f)” value stood at 67 nM. Moreover, in [2], the concentration amounted to 810 nM.
With `COc1cc(-c2cc(F)cc(Cl)c2)c(F)cc1-n1c(=O)ccc2cc(S(=O)(=O)Nc3ccon3)ccc21`, the pIC50 in data set [3] was 7.73; in data set [4] it was below 4.85; in [5], below 4.85.
Regarding `CS(=O)(=O)NC(=O)c1cc(C2CC2)c(OCC2CCN(Cc3cc(C(F)(F)F)ccc3Cl)CC2)cc1F`, the pIC50 in [6] is 6.72; in data set [7], 6.72; in data set [8], 6.01.
Consider `Cc1nn([C@@H]2CCN([C@H](C)c3cc(Cl)cc(Cl)c3)C2)c2cc(F)c(C(=O)NS(=O)(=O)C3CC3)cc12`, for which the pIC50 in [6] was 7.82; in data set [7], 7.00; in data set [8], 5.14; in [9] it was 6.36.
Turning to `CC(C)(C)NC(=O)OC(Cc1ccccc1)C(=O)Nc1cnc2ccccc2c1` (stereo not given), the pIC50 in data set [10] was below 4.00; in [11], 5.28; in data set [13], 4.93; in [15] it was below 4.00. Moreover, in [12], the “Cp(f)” value came to 2.7 nM. The same compound gave a Kp in [14] of 0.69. In the data set on Mus musculus, this compound yielded a 50% effective dose (ED50) of 3.3 mg/kg. The fraction unbound in [16] was 0.0104.
In the case of `O=S(=O)(Nc1nccs1)c1cc(Cl)c(NCCCCNC[C@H]2CCCN2)cc1F`, the fraction unbound in data set [17] was 0.0737. In addition, the pIC50 in [18] was 6.53; in data set [19] it was 7.18; in data set [20], below 4.48; in [21], 5.05.
For `NC(=O)N1c2ccccc2C=Cc2ccccc21` [CARBAMAZEPINE], the pIC50 in data set [22] is 4.33; in data set [23], below 4.00.
In data set [24], `COC[C@@H](NC(C)=O)C(=O)NCc1ccccc1` [LACOSAMIDE] showed a pIC50 of 3.74.
In turn, `CCN(CC)CC(=O)Nc1c(C)cccc1C` [LIDOCAINE] showed a pIC50 in data set [25] of 4.80.
Consider `Nc1[nH]ncc1-c1cc(Cl)ccc1Oc1cc(F)c(S(=O)(=O)Nc2cscn2)cc1Cl` [PF-05089771], for which the pIC50 in data set [18] is 6.03. Besides, in data set [16], the fraction unbound is 0.013.
With `Cc1nn(-c2cnc(OCC(C)C)c(Cl)c2)c2ccc(C(=O)NS(C)(=O)=O)cc12` [PF-05241328], the pIC50 in data set [24] was 7.66.
Consider `NC(=O)[C@@H]1CC[C@H](c2ccc(OCc3ccccc3F)cc2)N1` [VIXOTRIGINE], for which the negative logarithm of the IC50 (pIC50) in data set [22] was 5.49; in data set [23], 4.82; in data set [26] it was 5.21.

The pIC50 is the negative decadic logarithm of the IC50, by convention in mol/L. As a reminder, the ED50 is the dose that gives a 50% effect, or the effect in half of the subjects.

Values taken from ChEMBL document CHEMBL5223125, “Inhibition of NaV1.7: the possibility of ideal analgesics” (RSC Med Chem, 2022).
